Data published in patent US20230072421A1, “TARGETED RADIOPHARMACEUTICALS FOR THE DIAGNOSIS AND TREATMENT OF PROSTATE CANCER” (Bayer AS, priority 2019, published 2023).

Biological target: T1, PSMA-expressing LNCaP cells (Homo sapiens, UniProt Q04609)
T1 construct: PSMA-expressing LNCaP cells; endogenous in cells; host or cells: LNCaP
Assay: Binding competition assay against 3H-PSMA-617 on LNCaP cells
Details: for competition against 3H-PSMA-617 on PSMA-expressing LNCaP cells (in words): comparison between examples
Outline: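 Compounds added to LNCaP cells in growth medium, 2 h at 37 °C, 5% CO2. After two ice-cold PBS washes, cells lysed in 0.3 M NaOH and bound radioactivity measured by liquid scintillation counting.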

[1] = LNCaP cells, 10 nM 3H-PSMA-617, competing non-radiolabeled compound 10 nM, 2 h at 37° C., triplicates
[2] = LNCaP cells, 10 nM 3H-PSMA-617, competing non-radiolabeled compound 100 nM, 2 h at 37° C., triplicates

T1 sequence (Q04609 whole entry): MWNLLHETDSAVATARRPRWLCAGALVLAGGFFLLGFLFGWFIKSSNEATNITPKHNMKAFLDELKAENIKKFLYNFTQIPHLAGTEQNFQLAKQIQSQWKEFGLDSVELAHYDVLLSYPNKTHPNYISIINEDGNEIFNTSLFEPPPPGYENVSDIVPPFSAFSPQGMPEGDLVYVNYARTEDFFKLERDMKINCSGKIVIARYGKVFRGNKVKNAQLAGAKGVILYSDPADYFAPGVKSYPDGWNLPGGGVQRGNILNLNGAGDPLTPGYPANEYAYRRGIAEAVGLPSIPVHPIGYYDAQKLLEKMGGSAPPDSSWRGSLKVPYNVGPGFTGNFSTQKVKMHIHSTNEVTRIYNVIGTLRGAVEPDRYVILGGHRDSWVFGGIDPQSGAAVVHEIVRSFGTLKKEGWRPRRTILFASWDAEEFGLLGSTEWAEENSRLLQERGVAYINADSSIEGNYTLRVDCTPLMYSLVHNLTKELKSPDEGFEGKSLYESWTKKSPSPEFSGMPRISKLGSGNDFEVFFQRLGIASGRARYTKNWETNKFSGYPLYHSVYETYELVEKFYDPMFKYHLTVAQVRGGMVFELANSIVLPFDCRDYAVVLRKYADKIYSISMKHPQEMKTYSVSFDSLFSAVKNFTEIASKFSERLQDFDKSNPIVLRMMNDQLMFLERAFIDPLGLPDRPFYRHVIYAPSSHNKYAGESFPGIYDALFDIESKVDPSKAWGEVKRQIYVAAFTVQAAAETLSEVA

remaining activity at 0.01 µM [1] [%]	remaining activity at 0.1 µM [2] [%]	SMILES	competition against 3H-PSMA-617 on PSMA-expressing LNCaP cells (in words)	% remaining 3H-PSMA-617 @ 10 nM (mean) [1] [%]	% remaining 3H-PSMA-617 @ 100 nM (mean) [2] [%]
87	62	N[C@H]1CC[C@H](CNC(=O)N[C@@H](Cc2ccc3ccccc3c2)C(=O)NCCCC[C@H](NC(=O)N[C@@H](CCC(=O)O)C(=O)O)C(=O)O)CC1 [Example 40-A, (5S,12S,16S)-1-[(1r,4S)-4-aminocyclohexyl]-5-[(naphthalen-2-yl)methyl]-3,6,14-trioxo-2,4,7,13,15-pentaazaoctadecane-12,16,18-tricarboxylic acid]			
88	82	NC[C@H]1CC[C@H](C(=O)N[C@@H](CCCNC(=O)c2cnccn2)C(=O)NCCCC[C@H](NC(=O)N[C@@H](CCC(=O)O)C(=O)O)C(=O)O)CC1 [Example 20-A, N^6—{N^2-[(1r,4S)-4-(aminomethyl)cyclohexane-1-carbonyl]-N^5-(pyrazine-2-carbonyl)-L-ornithyl}-N^2-{[(1S)-1,3-dicarboxypropyl]carbamoyl}-L-lysine]			
		O=C(O)CC[C@H](NC(=O)N[C@@H](CCCCNC(=O)[C@H](Cc1ccc2ccccc2n1)NC(=O)C1CCC(CNC(=O)C[N+]23CC[N+]45CCN6CC[N+]7(CC2)CC(=O)[OH+][Th]347([O]C(=O)C6)[O]C(=O)C5)CC1)C(=O)O)C(=O)O (some centres unmarked) [Example 17-B-232Th]		46	10
71	21	O=C(O)CC[C@H](NC(=O)N[C@@H](CCCCNC(=O)[C@H](Cc1ccc2ccccc2c1)NC(=O)[C@H]1CC[C@H](CNC(=S)Nc2ccc(CC(CN(CCNC(=O)c3ccn(CCO)c(=O)c3O)CCNC(=O)c3ccn(CCO)c(=O)c3O)CN(CCNC(=O)c3ccn(CCO)c(=O)c3O)CCNC(=O)c3ccn(CCO)c(=O)c3O)cc2)CC1)C(=O)O)C(=O)O [Example 1-F, (3S,10S,14S)-1-{(1r,4S)-4-[({[4-(3-[bis(2-{[3-hydroxy-1-(2-hydroxyethyl)-2-oxo-1,2-dihydropyridine-4-carbonyl]amino}ethyl)amino]-2-{[bis(2-{[3-hydroxy-1-(2-hydroxyethyl)-2-oxo-1,2-dihydropyridine-4-carbonyl]amino}ethyl)amino]methyl}propyl)phenyl]carbamothioyl}amino)methyl]cyclohexyl}-3-[(naphthalen-2-yl)methyl]-1,4,12-trioxo-2,5,11,13-tetraazahexadecane-10,14,16-tricarboxylic acid]			
100	88	NC[C@H]1CC[C@H](C(=O)N[C@@H](CCCc2ccccc2)C(=O)NCCCC[C@H](NC(=O)N[C@@H](CCC(=O)O)C(=O)O)C(=O)O)CC1 [Example 3-A, N^6—{N-[(1r,4S)-4-(aminomethyl)cyclohexane-1-carbonyl]-5-phenyl-L-norvalyl}-N^2-{[(1S)-1,3-dicarboxypropyl]carbamoyl}-L-lysine]			
66	16	NCc1ccc(C(=O)N[C@@H](Cc2ccc3ccccc3c2)C(=O)NCCCC[C@H](NC(=O)N[C@@H](CCC(=O)O)C(=O)O)C(=O)O)cc1 [Example 24-A, (3S,10S,14S)-1-[4-(aminomethyl)phenyl]-3-[(naphthalen-2-yl)methyl]-1,4,12-trioxo-2,5,11,13-tetraazahexadecane-10,14,16-tricarboxylic acid]			
84	46	NCc1ccc(C(=O)N[C@@H](Cc2cnc3ccccc3c2)C(=O)NCCCC[C@H](NC(=O)N[C@@H](CCC(=O)O)C(=O)O)C(=O)O)nc1 [Example 32-A, N^6—{N-[5-(aminomethyl)pyridine-2-carbonyl]-3-(quinolin-3-yl)-L-alanyl}-N^2-{[(1S)-1,3-dicarboxypropyl]carbamoyl}-L-lysine]			
107	60	Nc1ccc(-c2ccn(CC(=O)N[C@@H](Cc3ccc4ccccc4c3)C(=O)NCCCC[C@H](NC(=O)N[C@@H](CCC(=O)O)C(=O)O)C(=O)O)n2)cc1 [Example 28-A, (4S,11S,15S)-1-[3-(4-aminophenyl)-1H-pyrazol-1-yl]-4-[(naphthalen-2-yl)methyl]-2,5,13-trioxo-3,6,12,14-tetraazaheptadecane-11,15,17-tricarboxylic acid]			
110	103	NC[C@H]1CC[C@H](C(=O)N[C@@H](Cc2ccc(-c3ccccc3)cc2)C(=O)NCCCC[C@H](NC(=O)N[C@@H](CCC(=O)O)C(=O)O)C(=O)O)CC1 [Example 11a-A, (3S,10S,14S)-1-[(1r,4S)-4-(aminomethyl)cyclohexyl]-3-[([1,1′-biphenyl]-4-yl)methyl]-1,4,12-trioxo-2,5,11,13-tetraazahexadecane-10,14,16-tricarboxylic acid]			
158	128	Cc1ccccc1C[C@H](NC(=O)[C@H]1CC[C@H](CN)CC1)C(=O)NCCCC[C@H](NC(=O)N[C@@H](CCC(=O)O)C(=O)O)C(=O)O [Example 12-A, N^6—{N-[(1r,4S)-4-(aminomethyl)cyclohexane-1-carbonyl]-2-methyl-L-phenylalanyl}-N^2-{[(1S)-1,3-dicarboxypropyl]carbamoyl}-L-lysine]			
27	7	NCc1cccc(C(=O)N[C@@H](Cc2ccc3ccccc3c2)C(=O)NCCCC[C@H](NC(=O)N[C@@H](CCC(=O)O)C(=O)O)C(=O)O)c1 [Example 27-A, (3S,10S,14S)-1-[3-(aminomethyl)phenyl]-3-[(naphthalen-2-yl)methyl]-1,4,12-trioxo-2,5,11,13-tetraazahexadecane-10,14,16-tricarboxylic acid]			
55	11	CNc1cc(C[C@@H](NC(=O)[C@H]2CC[C@H](CNC(=O)CN3CCN(CC(=O)O)CCN(CC(=O)O)CCN(CC(=O)O)CC3)CC2)C(=O)NCCCC[C@H](NC(=O)N[C@@H](CCC(=O)O)C(=O)O)C(=O)O)cc2ccccc12 [Example 37-B, (3R,10S,14S)-3-{[4-(methylamino)naphthalen-2-yl]methyl}-1,4,12-trioxo-1-[(1r,4S)-4-({2-[4,7,10-tris(carboxymethyl)-1,4,7,10-tetraazacyclododecan-1-yl]acetamido}methyl)cyclohexyl]-2,5,11,13-tetraazahexadecane-10,14,16-tricarboxylic acid]			
145	75	CNc1cc(C[C@@H](NC(=O)[C@H]2CC[C@H](CN)CC2)C(=O)NCCCC[C@H](NC(=O)N[C@@H](CCC(=O)O)C(=O)O)C(=O)O)cc2ccccc12 [Example 37-A, (3R,10S,14S)-1-[(1r,4S)-4-(aminomethyl)cyclohexyl]-3-{[4-(methylamino)naphthalen-2-yl]methyl}-1,4,12-trioxo-2,5,11,13-tetraazahexadecane-10,14,16-tricarboxylic acid]			
70	58	NC[C@H]1CC[C@H](C(=O)N(Cc2cccc(=O)[nH]2)[C@@H](Cc2ccc3ccccc3c2)C(=O)NCCCC[C@H](NC(=O)N[C@@H](CCC(=O)O)C(=O)O)C(=O)O)CC1 [Example 21-A, (3S,10S,14S)-1-[(1r,4S)-4-(aminomethyl)cyclohexyl]-3-[(naphthalen-2-yl)methyl]-1,4,12-trioxo-2-[(6-oxo-1,6-dihydropyridin-2-yl)methyl]-2,5,11,13-tetraazahexadecane-10,14,16-tricarboxylic acid]			
98	73	NC[C@H]1CC[C@H](C(=O)N[C@@H](Cc2cc3ccccc3cn2)C(=O)NCCCC[C@H](NC(=O)N[C@@H](CCC(=O)O)C(=O)O)C(=O)O)CC1 [Example 36-A, N^6—{N-[(1r,4S)-4-(aminomethyl)cyclohexane-1-carbonyl]-3-(isoquinolin-3-yl)-L-alanyl}-N^2-{[(1S)-1,3-dicarboxypropyl]carbamoyl}-L-lysine]			
93	21	NCc1ccc(C(=O)N[C@@H](Cc2ccc3ccccc3c2)C(=O)NCCCC[C@H](NC(=O)N[C@@H](CCC(=O)O)C(=O)O)C(=O)O)nc1 [Example 25-A, (3S,10S,14S)-1-[5-(aminomethyl)pyridin-2-yl]-3-[(naphthalen-2-yl)methyl]-1,4,12-trioxo-2,5,11,13-tetraazahexadecane-10,14,16-tricarboxylic acid]	improved competition in comparison to the cyclohexyl examples 1-A and 1-B		

SMILES	remaining activity at 0.01 µM [1] [%]	remaining activity at 0.1 µM [2] [%]	competition against 3H-PSMA-617 on PSMA-expressing LNCaP cells (in words)	% remaining 3H-PSMA-617 @ 10 nM (mean) [1] [%]	% remaining 3H-PSMA-617 @ 100 nM (mean) [2] [%]
O=C(O)CC[C@H](NC(=O)N[C@@H](CCCCNC(=O)[C@H](Cc1ccc2ccccc2c1)NC(=O)c1ccc(CNC(=O)CN2CCN(CC(=O)O)CCN(CC(=O)O)CCN(CC(=O)O)CC2)nc1)C(=O)O)C(=O)O [Example 26-B, (3S,10S,14S)-3-[(naphthalen-2-yl)methyl]-1,4,12-trioxo-1-[6-({2-[4,7,10-tris(carboxymethyl)-1,4,7,10-tetraazacyclododecan-1-yl]acetamido}methyl)pyridin-3-yl]-2,5,11,13-tetraazahexadecane-10,14,16-tricarboxylic acid]	53	6	improved competition in comparison to the cyclohexyl examples 1-A and 1-B		
COc1c(C[C@@H](NC(=O)c2ccc(CNC(=O)CN3CCN(CC(=O)O)CCN(CC(=O)O)CCN(CC(=O)O)CC3)cn2)C(=O)NCCCC[C@H](NC(=O)N[C@@H](CCC(=O)O)C(=O)O)C(=O)O)ccc2ccccc12 [Example 33a-B, (3R,10S,14S)-3-[(1-methoxynaphthalen-2-yl)methyl]-1,4,12-trioxo-1-[5-({2-[4,7,10-tris(carboxymethyl)-1,4,7,10-tetraazacyclododecan-1-yl]acetamido}methyl)pyridin-2-yl]-2,5,11,13-tetraazahexadecane-10,14,16-tricarboxylic acid]	74	42			
